Drawing on ChEMBL document CHEMBL1909046, “DrugMatrix in vitro pharmacology data”, this text covers IC50 and Ki for 2 compounds.

In the first assay the target is Insulin receptor (Rattus norvegicus, UniProt P15127). Further: in other assays of this panel Not Active means under 50% inhibition at 10 µM.
Insulin receptor, sequence (P15127 27-759 limits assumed): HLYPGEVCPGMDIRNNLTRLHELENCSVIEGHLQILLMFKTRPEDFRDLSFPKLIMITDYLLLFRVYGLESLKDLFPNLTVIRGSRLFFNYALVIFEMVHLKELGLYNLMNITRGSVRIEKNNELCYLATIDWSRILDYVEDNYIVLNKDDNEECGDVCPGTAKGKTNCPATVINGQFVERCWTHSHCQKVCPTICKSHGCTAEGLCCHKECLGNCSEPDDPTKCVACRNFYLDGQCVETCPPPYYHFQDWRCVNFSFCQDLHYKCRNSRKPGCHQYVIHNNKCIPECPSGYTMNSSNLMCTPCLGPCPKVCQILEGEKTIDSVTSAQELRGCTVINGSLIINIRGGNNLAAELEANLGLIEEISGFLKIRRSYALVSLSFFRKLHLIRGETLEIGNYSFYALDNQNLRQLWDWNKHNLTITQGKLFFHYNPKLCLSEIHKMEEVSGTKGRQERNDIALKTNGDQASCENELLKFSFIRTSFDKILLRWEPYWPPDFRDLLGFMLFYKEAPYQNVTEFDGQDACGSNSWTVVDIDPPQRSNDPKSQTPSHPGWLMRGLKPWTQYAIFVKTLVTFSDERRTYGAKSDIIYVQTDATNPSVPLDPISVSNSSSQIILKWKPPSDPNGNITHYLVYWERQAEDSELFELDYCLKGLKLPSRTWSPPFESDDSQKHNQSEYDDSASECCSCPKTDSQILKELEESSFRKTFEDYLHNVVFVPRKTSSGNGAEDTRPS
Insulin receptor, sequence (P15127 764-1383 limits assumed): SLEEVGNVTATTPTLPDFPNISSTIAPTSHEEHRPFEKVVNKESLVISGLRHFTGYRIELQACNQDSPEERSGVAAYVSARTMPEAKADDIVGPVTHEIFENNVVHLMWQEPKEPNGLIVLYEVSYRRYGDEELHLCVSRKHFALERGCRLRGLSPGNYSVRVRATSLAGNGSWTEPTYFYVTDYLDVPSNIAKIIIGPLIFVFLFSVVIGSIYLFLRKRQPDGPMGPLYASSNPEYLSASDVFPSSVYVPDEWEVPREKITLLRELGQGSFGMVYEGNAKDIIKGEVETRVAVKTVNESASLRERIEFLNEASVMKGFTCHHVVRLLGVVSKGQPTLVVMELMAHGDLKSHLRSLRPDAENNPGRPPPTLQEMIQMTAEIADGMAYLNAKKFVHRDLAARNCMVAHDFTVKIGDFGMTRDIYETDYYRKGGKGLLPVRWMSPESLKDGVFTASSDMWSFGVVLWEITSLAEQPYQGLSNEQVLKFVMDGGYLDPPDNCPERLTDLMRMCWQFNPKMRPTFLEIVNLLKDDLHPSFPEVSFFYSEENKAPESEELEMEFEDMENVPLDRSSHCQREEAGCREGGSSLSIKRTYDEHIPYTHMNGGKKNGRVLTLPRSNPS
Experiment: not given
Settings: not given
In kind it is cell membranes, Wistar, Liver, Membrane.
On to `CC1(C)S[C@@H]2[C@H](NC(=O)[C@H](N)c3ccc(O)cc3)C(=O)N2[C@H]1C(=O)O` [AMOXICILLIN], for which the IC50 entry was “Not Active”.

For the compound `NS(=O)(=O)c1cc2c(cc1Cl)NCNS2(=O)=O` [HYDROCHLOROTHIAZIDE], the IC50 entry is recorded as “Not Active”.

System in another assay: not listed separately
Briefly: DRUGMATRIX: Phorbol Ester radioligand binding (ligand: [3H] PDBu). The class given is cell membranes, Mus musculus, ICR, Brain, Membrane. The conditions noted are these: Not Active = under 50% inhibition at 10 µM.
For `CC1(C)S[C@@H]2[C@H](NC(=O)[C@H](N)c3ccc(O)cc3)C(=O)N2[C@H]1C(=O)O` [AMOXICILLIN], the IC50 result is given as “Not Active” and the Ki entry is “Not Active”.

On to `NS(=O)(=O)c1cc2c(cc1Cl)NCNS2(=O)=O` [HYDROCHLOROTHIAZIDE], for which the IC50 result is “Not Active” and the Ki result was “Not Active”.

The target of a further assay is T1, Leukotriene C4 synthase (Cavia porcellus, UniProt A6XA80).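 Further: enzyme inhibition assay of leukotriene C4 synthase, using LTA4 as the substrate; in other assays of this panel Not Active means under 50% inhibition at 10 µM.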
T1 sequence (A6XA80 whole entry): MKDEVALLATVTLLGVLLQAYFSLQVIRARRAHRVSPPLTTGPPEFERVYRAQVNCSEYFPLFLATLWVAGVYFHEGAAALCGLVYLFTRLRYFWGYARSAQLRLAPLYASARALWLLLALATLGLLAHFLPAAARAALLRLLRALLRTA
The assay is described as follows: biochemical. In kind it is tissue-based, Lung.
Settings: not given
On to `CC1(C)S[C@@H]2[C@H](NC(=O)[C@H](N)c3ccc(O)cc3)C(=O)N2[C@H]1C(=O)O` [AMOXICILLIN], for which the IC50 result is “Not Active”.

`NS(=O)(=O)c1cc2c(cc1Cl)NCNS2(=O)=O` [HYDROCHLOROTHIAZIDE]: the IC50 entry is listed as “Not Active”.

The next assay deals with T2, Neutrophil elastase (Homo sapiens, UniProt P08246).
T2 sequence (P08246 whole entry): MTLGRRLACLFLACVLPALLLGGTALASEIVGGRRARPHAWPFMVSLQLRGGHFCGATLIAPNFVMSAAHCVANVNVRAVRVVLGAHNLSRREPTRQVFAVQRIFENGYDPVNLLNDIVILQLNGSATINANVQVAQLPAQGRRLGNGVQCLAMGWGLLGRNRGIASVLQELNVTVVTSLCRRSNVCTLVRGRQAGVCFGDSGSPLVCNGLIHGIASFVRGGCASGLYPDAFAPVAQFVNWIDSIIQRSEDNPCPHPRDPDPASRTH
Experiment: not given
The class given is tissue-based.
Settings: not given
For `CC1(C)S[C@@H]2[C@H](NC(=O)[C@H](N)c3ccc(O)cc3)C(=O)N2[C@H]1C(=O)O` [AMOXICILLIN], the IC50 entry is “Not Active”.

For `NS(=O)(=O)c1cc2c(cc1Cl)NCNS2(=O)=O` [HYDROCHLOROTHIAZIDE], the IC50 entry is reported as “Not Active”.

For a further assay, the target named is T3, Neuropeptide Y receptor type 1 (Homo sapiens, UniProt P25929). Further: in other assays of this panel Not Active means under 50% inhibition at 10 µM.
T3 sequence (P25929 whole entry): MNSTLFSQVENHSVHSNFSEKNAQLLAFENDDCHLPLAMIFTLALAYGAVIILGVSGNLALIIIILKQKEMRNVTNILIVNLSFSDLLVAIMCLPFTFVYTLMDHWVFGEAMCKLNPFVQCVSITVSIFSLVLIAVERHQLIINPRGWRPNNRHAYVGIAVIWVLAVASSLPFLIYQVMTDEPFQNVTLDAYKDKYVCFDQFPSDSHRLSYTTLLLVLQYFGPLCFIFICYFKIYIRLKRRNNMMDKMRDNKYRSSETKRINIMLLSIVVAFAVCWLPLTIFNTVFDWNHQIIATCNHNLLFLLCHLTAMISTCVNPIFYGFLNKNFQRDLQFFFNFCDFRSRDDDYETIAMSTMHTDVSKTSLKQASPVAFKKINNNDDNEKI
Experiment: not given
The conditions noted are these: sk-n-mc. The class given is cell membranes, Membrane.
`CC1(C)S[C@@H]2[C@H](NC(=O)[C@H](N)c3ccc(O)cc3)C(=O)N2[C@H]1C(=O)O` [AMOXICILLIN]: the IC50 result is “Not Active”.

On to `NS(=O)(=O)c1cc2c(cc1Cl)NCNS2(=O)=O` [HYDROCHLOROTHIAZIDE], for which the IC50 result was “Not Active”.

Another assay addresses T4, Nitric oxide synthase, inducible (Mus musculus, UniProt P29477).
T4 sequence (P29477 whole entry): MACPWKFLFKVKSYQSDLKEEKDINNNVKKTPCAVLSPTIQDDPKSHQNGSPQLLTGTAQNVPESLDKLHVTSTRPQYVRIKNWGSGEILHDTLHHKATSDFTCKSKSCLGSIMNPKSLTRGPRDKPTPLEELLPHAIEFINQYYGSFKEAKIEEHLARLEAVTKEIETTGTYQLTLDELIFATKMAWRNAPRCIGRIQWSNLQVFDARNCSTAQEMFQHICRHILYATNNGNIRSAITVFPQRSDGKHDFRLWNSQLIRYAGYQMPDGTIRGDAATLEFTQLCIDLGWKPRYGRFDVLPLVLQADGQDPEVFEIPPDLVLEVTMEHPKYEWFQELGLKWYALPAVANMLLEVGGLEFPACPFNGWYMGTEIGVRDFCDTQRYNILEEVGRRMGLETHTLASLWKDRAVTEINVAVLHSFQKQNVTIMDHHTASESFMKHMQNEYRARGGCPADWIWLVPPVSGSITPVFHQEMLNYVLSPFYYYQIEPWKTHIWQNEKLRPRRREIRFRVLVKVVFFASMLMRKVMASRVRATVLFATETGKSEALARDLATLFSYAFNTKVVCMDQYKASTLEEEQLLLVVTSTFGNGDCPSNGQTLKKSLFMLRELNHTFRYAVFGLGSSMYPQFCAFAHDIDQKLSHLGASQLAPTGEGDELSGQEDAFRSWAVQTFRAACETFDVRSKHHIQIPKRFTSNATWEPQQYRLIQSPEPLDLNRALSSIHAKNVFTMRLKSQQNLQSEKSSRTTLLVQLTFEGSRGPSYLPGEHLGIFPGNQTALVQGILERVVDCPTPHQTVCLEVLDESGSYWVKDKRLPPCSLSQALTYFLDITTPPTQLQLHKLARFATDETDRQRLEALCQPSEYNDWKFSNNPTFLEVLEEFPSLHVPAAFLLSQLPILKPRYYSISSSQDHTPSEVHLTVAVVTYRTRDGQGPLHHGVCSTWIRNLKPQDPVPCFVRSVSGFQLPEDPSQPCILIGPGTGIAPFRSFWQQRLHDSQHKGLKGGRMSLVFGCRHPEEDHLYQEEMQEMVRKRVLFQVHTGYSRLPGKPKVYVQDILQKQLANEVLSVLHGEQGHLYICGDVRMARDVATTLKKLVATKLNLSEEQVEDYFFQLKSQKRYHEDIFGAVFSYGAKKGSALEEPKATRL
Experiment: not given
Further details: species or system Escherichia coli.
Settings: not given
On to `CC1(C)S[C@@H]2[C@H](NC(=O)[C@H](N)c3ccc(O)cc3)C(=O)N2[C@H]1C(=O)O` [AMOXICILLIN], for which the IC50 result was “Not Active”.

In the case of `NS(=O)(=O)c1cc2c(cc1Cl)NCNS2(=O)=O` [HYDROCHLOROTHIAZIDE], the IC50 entry is given as “Not Active”.

A further assay deals with Estrogen receptor beta (Homo sapiens, UniProt Q92731).
Estrogen receptor beta, sequence (Q92731 whole entry): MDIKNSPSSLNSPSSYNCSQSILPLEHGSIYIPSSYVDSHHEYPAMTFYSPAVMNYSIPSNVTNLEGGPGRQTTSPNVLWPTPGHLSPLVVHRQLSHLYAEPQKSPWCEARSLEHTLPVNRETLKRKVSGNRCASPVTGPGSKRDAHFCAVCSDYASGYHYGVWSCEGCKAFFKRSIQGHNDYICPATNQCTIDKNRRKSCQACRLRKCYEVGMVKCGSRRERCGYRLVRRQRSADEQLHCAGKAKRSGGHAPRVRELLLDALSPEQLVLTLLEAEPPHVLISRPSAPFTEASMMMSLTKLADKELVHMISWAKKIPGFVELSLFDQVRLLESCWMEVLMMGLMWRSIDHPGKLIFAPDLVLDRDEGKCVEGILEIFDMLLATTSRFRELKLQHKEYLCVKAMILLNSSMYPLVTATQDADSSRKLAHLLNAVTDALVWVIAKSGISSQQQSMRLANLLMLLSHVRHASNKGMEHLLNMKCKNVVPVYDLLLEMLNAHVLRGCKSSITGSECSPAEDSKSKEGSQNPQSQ
Experiment: not given
The conditions noted are these: sf9.
In the case of `CC1(C)S[C@@H]2[C@H](NC(=O)[C@H](N)c3ccc(O)cc3)C(=O)N2[C@H]1C(=O)O` [AMOXICILLIN], the IC50 entry is given as “Not Active”.

`NS(=O)(=O)c1cc2c(cc1Cl)NCNS2(=O)=O` [HYDROCHLOROTHIAZIDE]: the IC50 result was “Not Active”.

The target in the next assay is C-C chemokine receptor type 2 (Homo sapiens, UniProt P41597). Further: in other assays of this panel Not Active means under 50% inhibition at 10 µM.
C-C chemokine receptor type 2, sequence (P41597 whole entry): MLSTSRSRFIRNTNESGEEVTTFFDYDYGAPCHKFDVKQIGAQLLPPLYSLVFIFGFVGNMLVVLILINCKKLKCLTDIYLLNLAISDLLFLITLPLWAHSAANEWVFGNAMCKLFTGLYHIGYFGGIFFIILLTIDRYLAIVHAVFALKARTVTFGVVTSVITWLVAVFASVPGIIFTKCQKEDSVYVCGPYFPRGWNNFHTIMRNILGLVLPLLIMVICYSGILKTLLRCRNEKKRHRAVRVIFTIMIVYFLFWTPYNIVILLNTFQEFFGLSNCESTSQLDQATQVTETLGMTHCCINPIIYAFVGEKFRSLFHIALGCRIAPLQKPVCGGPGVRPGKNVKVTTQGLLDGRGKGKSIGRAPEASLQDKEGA
Experiment: not given
In kind it is cell membranes, CHO-K1, Membrane. The conditions noted are these: cho-k1.
For `CC1(C)S[C@@H]2[C@H](NC(=O)[C@H](N)c3ccc(O)cc3)C(=O)N2[C@H]1C(=O)O` [AMOXICILLIN], the IC50 result is “Not Active”.

Turning to `NS(=O)(=O)c1cc2c(cc1Cl)NCNS2(=O)=O` [HYDROCHLOROTHIAZIDE], the IC50 entry is recorded as “Not Active”.

System in another assay: not listed separately
The assay is described as follows: DRUGMATRIX: Glutamate, AMPA radioligand binding (ligand: [3H] AMPA). The class given is cell membranes, Rattus norvegicus, Wistar, Cerebral cortex, Membrane. The conditions noted are these: Not Active = under 50% inhibition at 10 µM.
For the compound `CC1(C)S[C@@H]2[C@H](NC(=O)[C@H](N)c3ccc(O)cc3)C(=O)N2[C@H]1C(=O)O` [AMOXICILLIN], the IC50 entry is listed as “Not Active” and the Ki result is listed as “Not Active”.

With `NS(=O)(=O)c1cc2c(cc1Cl)NCNS2(=O)=O` [HYDROCHLOROTHIAZIDE], the IC50 result is “Not Active” and the Ki entry is given as “Not Active”.

Another assay concerns the target cGMP-specific 3',5'-cyclic phosphodiesterase (Homo sapiens, UniProt O76074). The assay is described as follows: DRUGMATRIX: Phosphodiesterase PDE5 enzyme inhibition (substrate: [3H]cGMP + cGMP). The class given is tissue-based, Platelet. The conditions noted are these: platelet; Not Active = under 50% inhibition at 10 µM.
With `CC1(C)S[C@@H]2[C@H](NC(=O)[C@H](N)c3ccc(O)cc3)C(=O)N2[C@H]1C(=O)O` [AMOXICILLIN], the IC50 result was “Not Active”.

Regarding `NS(=O)(=O)c1cc2c(cc1Cl)NCNS2(=O)=O` [HYDROCHLOROTHIAZIDE], the IC50 result is “Not Active”.

System in the next assay: not listed separately
Briefly: DRUGMATRIX: ATPase, Na+/K+ enzyme inhibition (substrate: ATP). The conditions noted are these: Not Active = under 50% inhibition at 10 µM. The class given is tissue-based, Sus scrofa, Heart.
For `CC1(C)S[C@@H]2[C@H](NC(=O)[C@H](N)c3ccc(O)cc3)C(=O)N2[C@H]1C(=O)O` [AMOXICILLIN], the IC50 result was “Not Active” and the Ki entry is on record as “Not Active”.

`NS(=O)(=O)c1cc2c(cc1Cl)NCNS2(=O)=O` [HYDROCHLOROTHIAZIDE]: the IC50 result is “Not Active” and the Ki entry is recorded as “Not Active”.

System in the next assay: not listed separately
The assay is described as follows: DRUGMATRIX: Glutamate, Kainate radioligand binding (ligand: [3H] Kainic acid). The class given is cell membranes, Rattus norvegicus, Wistar, Brain, Membrane. The conditions noted are these: Not Active = under 50% inhibition at 10 µM.
As to `CC1(C)S[C@@H]2[C@H](NC(=O)[C@H](N)c3ccc(O)cc3)C(=O)N2[C@H]1C(=O)O` [AMOXICILLIN], the IC50 result was “Not Active” and the Ki entry is “Not Active”.

Turning to `NS(=O)(=O)c1cc2c(cc1Cl)NCNS2(=O)=O` [HYDROCHLOROTHIAZIDE], the IC50 entry is recorded as “Not Active” and the Ki entry was “Not Active”.

A further assay concerns the target T5, C-C chemokine receptor type 4 (Homo sapiens, UniProt P51679). Further: in other assays of this panel Not Active means under 50% inhibition at 10 µM.
T5 sequence (P51679 whole entry): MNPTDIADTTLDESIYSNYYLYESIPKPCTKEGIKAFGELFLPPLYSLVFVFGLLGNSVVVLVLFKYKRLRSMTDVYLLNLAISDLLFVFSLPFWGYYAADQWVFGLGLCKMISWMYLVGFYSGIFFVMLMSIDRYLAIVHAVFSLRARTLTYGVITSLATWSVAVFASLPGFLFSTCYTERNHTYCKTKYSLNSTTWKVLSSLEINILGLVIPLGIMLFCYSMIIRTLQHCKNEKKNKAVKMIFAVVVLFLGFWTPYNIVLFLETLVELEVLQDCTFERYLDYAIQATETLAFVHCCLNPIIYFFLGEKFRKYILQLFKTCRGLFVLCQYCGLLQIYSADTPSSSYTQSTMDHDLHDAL
Experiment: not given
The class given is cell membranes, Membrane. The conditions noted are these: chem-1.
On to `CC1(C)S[C@@H]2[C@H](NC(=O)[C@H](N)c3ccc(O)cc3)C(=O)N2[C@H]1C(=O)O` [AMOXICILLIN], for which the IC50 result is on record as “Not Active”.

With `NS(=O)(=O)c1cc2c(cc1Cl)NCNS2(=O)=O` [HYDROCHLOROTHIAZIDE], the IC50 entry is listed as “Not Active”.
